Here are results for three compounds from patent EP4311546A1, “COMBINATION THERAPY FOR MYOPATHIES” (Dynacure, priority 2022, dated 2024).

The test system of assay [1] is dynamin 2. The conditions noted are these: dynamin 2 inhibitor, value stated in the list of known inhibitors; cited from earlier work.
In assay [2] the test system is mitochondrial division. As to conditions: mitochondrial division inhibitor; cited from earlier work.
The subject of assay [3] is Mtm1^-/y mice. The assay can be described thus: Lifespan / survival of Mtm1-/y mice (XL-CNM model). Type of assay: in vivo. The conditions noted are these: at the end of the study (12 weeks old), ASO 3 mg/kg i.p. weekly from 4 weeks, tamoxifen 10 mg/kg of diet. As to the method: (§1) For experiments in mice, the ASOs were injected intraperitonally (i.p.) weekly from 4 weeks to 12 weeks of age at 3 mg/kg.
(§2) For experiments in mice, pellets of diet were supplemented with tamoxifen citrate (SAFE; […]) to achieve 10 mg of tamoxifen free base per kg of chow. Pellets of diet devoid of tamoxifen were used as a control (to be administered with ASO-ctrl).
(§3) Mtm1 deficient mice in the 129Pas genetic background were obtained from Dr. Laporte (IGBMC, Illkirch, France). Wild type males were bred with Mtm1^+/- heterozygous females. The Mtm1^+/y (wild type, i.e. WT) and Mtm1^-/y (mutant) males in the progeny were used in the experiments. The Mtm1^-/y knock-out mice reproduce the hallmarks of XL-CNM patients such as abnormal position of the organelles, defects in the localization of the nuclei and muscle atrophy, associated with progressive muscle weakness including respiratory weakness, leading to death between 6 and 14 weeks of age (Buj-Bello et al., Proc Natl Acad Sci USA, 2002; 99: 15060-15065; Al-Qusairi,et al, Proc Natl Acad Sci USA, 2009; 106: 18763-18768).
Animals were followed for up to 12 weeks old, with weekly recordings of clinical signs and survival. Treatments were started when disease started to manifest, i.e. at 4 weeks of age.
(§4) Weekly i.p. injections of 3 mg/kg of antisense were performed in the Mtm1^+/y and Mtm1^-/y mice, from 4 to 12 weeks of age. […]

Assay [4] concerns Mtm1^-/y mice. The experiment in a line: Body weight of Mtm1-/y mice. Type of assay: in vivo. The conditions noted are these: at 12 weeks, mean ± SD, ASO 3 mg/kg i.p. weekly, tamoxifen 10 mg/kg of diet. On the procedure: as §1, §2, §3
Weekly i.p. injections of 3 mg/kg of antisense were performed in the Mtm1^+/y and Mtm1^-/y mice, from 4 to 12 weeks of age. Alongside these injections, mice were fed pellets of diets containing tamoxifen citrate (10 mg/kg) or devoid of tamoxifen. […]

The test system of assay [5] is Mtm1^-/y mice. The experiment in a line: Hanging test (whole-body strength) in Mtm1-/y mice. Type of assay: in vivo. The conditions noted are these: at 12 weeks of age, mean ± SD, cut-off 60 seconds, ASO 3 mg/kg i.p. weekly, tamoxifen 10 mg/kg of diet. On the procedure:
as §1, §2
as §3, with “18763-18768). […]” for “18763-18768).”
Whole-body strength of mice was evaluated using the hanging test. […] The latency time for the mouse to fall in the cage was measured, with a cut-off time of 60 seconds. […] The maximum hanging time was recorded. […]

The test system of assay [6] is Mtm1^-/y mice. The assay can be described thus: Disease Severity Score (DSS) in Mtm1-/y mice. Type of assay: in vivo. As to conditions: at 12 weeks old, score 0 (no disease) to 5 (most severe), ASO 3 mg/kg i.p. weekly, tamoxifen 10 mg/kg of diet. On the procedure:
as §1, §2, §3, §4
Disease Severity Score was calculated to monitor the clinical appearance of mice (n = 10 per group). […]

The subject of assay [7] is Dnm2 mRNA. The experiment in a line: Dnm2 mRNA expression by RT-qPCR in C2C12 cells. As to conditions: C2C12 mouse myoblast cells, 24 hrs, 20 µM (with PBS control, or with ASO-ctrl). Type of assay: cell-based. On the procedure: For experiments in mouse immortalized myoblasts (C2C12 cells), the ASOs were electroporated at 2 µM in 2 mm cuvettes, at 150V for 5 ms (one pulse) for 2 million cells in a volume of 400 µl PBS, or in 4mm cuvettes, at 300V for 5 ms (one pulse) for 4 million cells in a volume of 800 µl PBS. Table 2. Antisense oligonucleotides
For experiments conducted in mouse immortalized myoblasts (C2C12 cells), 4-hydroxytamoxifen (5 mg/ml solution, Sigma #SML-1666) was used. The stock solution at 13mM in ethanol:isopropanol (95:5) was diluted in cell culture medium to obtain a working concentration of 20 µM. For vehicle control cells (no treatment), ethanol:isopropanol (95:5) was added to the cell culture medium.
The […] immortalized myoblast cells were cultured in DMEM with 1g/l glucose (Gibco) with 20% FBS (Gibco) + 40 µg/ml Gentamycin (Gibco). The cells were electroporated with either PBS, ASO-ctrl or ASO-Dnm2 at 2 µM, and/or treated with 4-OH-tamoxifen at 20 µM in the cell culture medium, as described in 1.1. The experiment was done in duplicate wells, in 6-well plates. After 24 hrs of treatment, cells were collected and either RNA was extracted for RT-qPCR or protein was extracted for Western Blot. […]
Background: In qPCR the cycle at which signal appears reflects the starting amount.

The subject of assay [8] is DNM2. The experiment in a line: DNM2 protein expression by Western blot in C2C12 cells. Type of assay: cell-based, mouse. As to conditions: C2C12 cells, 5, 10 or 20 µM (with PBS control, or with ASO-ctrl).
Description: For experiments in mouse immortalized myoblasts (C2C12 cells), the ASOs were electroporated at 2 μM in 2 mm cuvettes, at 150V for 5 ms (one pulse) for 2 million cells in a volume of 400 μl PBS, or in 4mm cuvettes, at [MUT] for 5 ms (one pulse) for 4 million cells in a volume of 800 μl PBS. […] The [MUT] immortalized myoblast cells were cultured in DMEM with 1g/l glucose (Gibco) with 20% FBS (Gibco) + 40 μg/ml Gentamycin (Gibco). The cells were electroporated with either PBS, ASO-ctrl or ASO-Dnm2 at 2 μM, and/or treated with 4-OH-tamoxifen at 20 μM in the cell culture medium, as described in 1.1. The experiment was done in duplicate wells, in 6-well plates. After 24 hrs of treatment, cells were collected and either RNA was extracted for RT-qPCR or protein was extracted for Western Blot. Myoblast C2C12 cells, treated with either (i) PBS + Tamoxifen (20 μM), (ii) ASO ctrl (2 μM), (iii) ASO ctrl (2 μM) + Tamoxifen (20 μM), (iv) ASO-Dnm2 (2 μM) or (v) ASO-Dnm2 (2 μM) + Tamoxifen (20 μM), were lysed in RIPA buffer (Thermo Scientific) supplemented with Halt protease inhibitor cocktail (Thermo Scientific). Protein concentration was determined with the BioRad DC protein Assay kit. Samples were diluted in RIPA buffer, NuPAGE LDS sample buffer and NuPAGE Sample Reducing Agent and denaturated at 70°C for 10 min. […]

In general, IC50 refers to the concentration that inhibits the measured activity by half. Turning to `O=C(NN=Cc1cc(O)c(O)cc1O)c1cc2ccccc2cc1O` [hydroxy-Dynasore, 3-hydroxy-N'-[(2,4,5-trihydroxyphenyl)methylidene]naphthalene-2-carbohydrazide], in assay [1], the half-maximal inhibitory concentration (IC50) was 2.6 µM.
As for `COc1cc(-n2c(S)nc3ccccc3c2=O)c(Cl)cc1Cl` [m-divi 1, 3-(2,4-Dichloro-5-methoxyphenyl)-2-sulfanylquinazolin-4(3H)-one], in assay [2], the IC50 is 10 µM.
`CC/C(=C(\c1ccccc1)c1ccc(OCCN(C)C)cc1)c1ccccc1` [tamoxifen, 2-[4-[(Z)-1,2-diphenylbut-1-enyl]phenoxy]-N,N-dimethylethanamine] gave a survival rate in assay [3] of 70%. Besides, in assay [4], the body weight came out at 15.3 ± 0.4 g. The “holding time (hanging test)” value in assay [5] was found to be 35.3 ± 24.4 s. Besides, the “Disease Severity Score (DSS), mean score” value in assay [6] is reported as 3.3. Moreover, the “Dnm2 mRNA expression” value in assay [7] is “did not reduce”. Further, the DNM2 protein expression entry in assay [8] was “did not reduce”.
